Data set [1] deals with 8MGBA cells. As to the kind of experiment: Cell viability assay (CellTiter-Glo), 8MGBA. The format is cell-based. The conditions noted are these: Homo sapiens, 8-MG-BA; Cell Line: 8MGBA; read-out: LC50 (μM ± SD). Here is the method:
(§1) In vitro activity of QBS10072S was assessed using a modified clonogenic cell viability assay in 96-well clear-bottom plates. For the LLC-PK1 inducible LAT1-expressing cell line, 1000 cells/well were plated and cells were treated with either butyrate alone (non-induced) or with both butyrate and doxycycline (induced) as described above. For GBM cell lines, 2000 cells/well were plated. On day 2 (GBM) or day 3 (LLC-PK1) after original plating, cells were washed twice with PBS and incubated with 50 μL of various concentrations of QBS10072S in PBS in at least quadruplicate. After 30 minutes at 37°C, 200 μL of growth medium was added to each well. Clonal populations were allowed to grow until the control wells (mock treatment) were near confluence (7 to 10 days). At this point, 170 μL media were removed and 60 μL CellTiter-Glo® (Promega, Madison, WI) were added to each well. Plates were placed on an orbital shaker for three minutes to lyse the cells and then incubated for an additional 10 minutes at RT to stabilize the luminescent signal. Luminescence was recorded using an EnSpire® Multimode Plate Reader (Perkin Elmer). Background (luminescence from wells incubated with 100 μM melphalan or lomustine) was subtracted and data were normalized to the control. EC50s were determined by non-linear regression using GraphPad Prism.
(In general: In ATP-based viability assays light output follows the ATP content of the culture.)

The subject of data set [2] is LN229 cells. As to the kind of experiment: Cell viability assay (CellTiter-Glo), LN229. The data set is classed as cell-based. The conditions noted are these: Homo sapiens, LN-229; Cell Line: LN229; read-out: LC50 (μM ± SD). How it is done:
as §1

The subject of data set [3] is 42MGBA cells. As to the kind of experiment: Cell viability assay (CellTiter-Glo), 42MGBA. The format is cell-based. Conditions: Homo sapiens; Cell Line: 42M6BA; read-out: LC50 (μM ± SD). Here is the method: as §1
Data set [4] relates to LN229 intracerebral human GBM xenograft. Put plainly: LN229 intracerebral human GBM xenograft in athymic mice (BLI, survival). Conditions: for median survival time: vehicle 56; for %TGI: day 53, three doses. The data set is classed as in vivo, mouse. How it is done:
Five-week-old female athymic mice (nu/nu, homozygous: Simonsen Laboratories, Gilroy, CA), housed under aseptic conditions, received intracranial tumor cell injection as previously described and as approved by the University of California San Francisco Institutional Animal Care and Use Committee, Protocol #: AN111064-03. Briefly, mice were anesthetized by intraperitoneal injection of ketamine (100 mg/kg) and xylazine (10 mg/kg) and injected with 3 μL of tumor cell suspension (300,000 cells total) into the right caudate-putamen. Coordinates: 3 mm to the right from bregma, on top of the coronal suture, and 3.5 mm depth. Injection rate: ~30 second/uL. For treatment studies, eight mice were used for each group for LN229 studies and nine mice per group for U251 studies. Treatments began when tumors entered the log-phase of growth as measured by luminescence, for the LN229 experiment on Day 21 and for U251 experiments on Day 14.
Dosing levels and frequency are described in the figure legends.
For bioluminescence imaging (BLI), mice were anesthetized as above, then administered 150 mg/kg of luciferin (D-luciferin potassium salt, Gold Biotechnology, St. Louis, MO) via intraperitoneal injection. Ten minutes after luciferin injection, mice were examined for tumor bioluminescence with an IVIS Lumina imaging station and Living Image software (Caliper Life Sciences, Alameda, CA), and regions of interest were recorded as photons per second per steradian per square cm.
(In general: In xenograft studies the graft and the host belong to different species.)

The test system of data set [5] is U251 cells. Put plainly: Cell viability assay (CellTiter-Glo), U251. The format is cell-based. The conditions noted are these: Homo sapiens, U-251; Cell Line: U251; read-out: LC50 (μM ± SD). How it is done:
as §1

In data set [6] the test system is U87-MGMT cells. As to the kind of experiment: WST1 cell viability assay, U87-MGMT. The format is cell-based. The conditions noted are these: Homo sapiens, read-out: LC50 (μM ± SD). Here is the method: In vitro activities of QBS10072S and temozolomide (TMZ) in U87 and U87-MGMT cells were assessed using the WST1 cell viability assay in 96-well plates in which 500/well of cells were plated in sextuplets for each condition. To avoid cell loss, the following washing and medium removing procedures were all done using a P200 pipet without vacuum aspiration. For QBS10072S treatment, cells were washed with PBS the next day and incubated with 50 μL of various concentrations of QBS10072S in PBS for 1 hour at 37°C. After incubation, 150 μL of growth medium was added to each well. The medium was subsequently changed every two days until day 7. For TMZ treatment, cells were treated with 100 μL of various concentrations of TMZ in a growth medium for 2 days. After incubation, cells were put back in a normal growth medium and continued culturing for five days. In the end, 10 μL of WST1 reagent was added to each well and incubated at 37°C for 4h before subjecting to plate reading at 450 nm and 690nm using an EnSpire multimode plate reader (PerkinElmer). Background (OD690nm) was subtracted and data were normalized to the control. LC50s were determined by non-linear regression using GraphPad Prism (GraphPad Software Inc., San Diego, California)

Data set [7] has as its system GBM cell lines. Put plainly: Cell viability assay (CellTiter-Glo), multiple GBM cell lines. The format is cell-based. Conditions: Homo sapiens; range over cell lines; read-out: EC50s, viability loss in multiple GBM cell lines. How it is done:
as §1

Data set [8] relates to DBTRG cells. Put plainly: Cell viability assay (CellTiter-Glo), DBTRG. The conditions noted are these: Homo sapiens; Cell Line: DBTRG; read-out: LC50 (μM ± SD). The data set is classed as cell-based. How it is done:
as §1

The nature of data set [9]: Tolerability in non-tumor-bearing nude mice. The data set is classed as in vivo, mouse. Conditions: 5 or 10 mg/kg IV once a week for four weeks. Here is the method:
The tumor-suppressive activity of QBS10072S was evaluated in two orthotopic murine models of GBM using luciferase-expressing U251 and LN229 cell lines. Tumor volume was monitored by BLI measurement. The tolerability of QBS10072S was first tested by dosing 5 or 10 mg/kg IV once a week for four weeks into non-tumor-bearing nude mice (Figure 6). The body weights and white blood cell counts were not affected by this treatment, so QBS10072S was tested at various doses up to 10 mg/kg in the GBM models.
Figure 6 Tolerability of QBS10072S in nude mice Non-tumor-bearing nude mice were dosed IV with vehicle or QBS10072S (5 or 10 mg/kg) once a week for four weeks (arrows). Body weights were measured every three days and complete blood counts were determined once a week for seven weeks. A: Percent change in body weight over the course of the study, normalized to pre-dose weight. B: White blood cell (WBC) counts for each study arm. Horizontal bars represent the normal range of WBCs in these mice.

Setting [10] is: 2 mg/kg IV once every two weeks.
[11] abbreviates: 4 mg/kg IV once every two weeks.
Where [12] appears, read: 8 mg/kg IV once every two weeks.

These results are taken from PMC8482806, “A Novel Blood-Brain Barrier-Permeable Chemotherapeutic Agent for the Treatment of Glioblastoma” (Cureus, 2021).

Consider `Cc1ccc(N(CCCl)CCCl)cc1C[C@H](N)CC(=O)O` [QBS10072S, (+)-(3S)-amino-4-[5-[bis(2-chloroethyl)amino]-2-methyl-phenyl]butanoic acid], for which the CC50 came to 34 ± 20 µM in data set [1]; 16 ± 2 µM in data set [2]; 40 ± 10 µM in data set [3]; 12 ± 2 µM in [5]; 12.8 ± 4.1 µM in data set [6]; 5 ± 2 µM in data set [8]. The median survival time is recorded as 66.5 days in [4] (setting [10]), 71 days in [4] (setting [11]) and 74 days in data set [4] (setting [12]). For the same compound, the figures for the “%TGI” value in data set [4] (setting [10]), in [4] (setting [11]) and in data set [4] (setting [12]) were 72%, 73% and 84%, respectively. For the same compound, the EC50 in [7] is 12 to 40 µM. For the same compound, the body weights result in data set [9] is “not affected”. Also, in [9], the “white blood cell counts” value is reported as “not affected”.
